# Activity calls are given as the source filed them.
# Biological target: COX1 (Prostaglandin G/H synthase 1) (Homo sapiens, UniProt P23219)
# Assay: Inhibition of COX1 in human platelet rich plasma in assessed as inhibition of ADP-induced platelet aggregation at 10 uM incubated for 5 mins by turbidimetry based Born's method relative to control
# Chain of COX1 (Prostaglandin G/H synthase 1) (P23219 whole entry): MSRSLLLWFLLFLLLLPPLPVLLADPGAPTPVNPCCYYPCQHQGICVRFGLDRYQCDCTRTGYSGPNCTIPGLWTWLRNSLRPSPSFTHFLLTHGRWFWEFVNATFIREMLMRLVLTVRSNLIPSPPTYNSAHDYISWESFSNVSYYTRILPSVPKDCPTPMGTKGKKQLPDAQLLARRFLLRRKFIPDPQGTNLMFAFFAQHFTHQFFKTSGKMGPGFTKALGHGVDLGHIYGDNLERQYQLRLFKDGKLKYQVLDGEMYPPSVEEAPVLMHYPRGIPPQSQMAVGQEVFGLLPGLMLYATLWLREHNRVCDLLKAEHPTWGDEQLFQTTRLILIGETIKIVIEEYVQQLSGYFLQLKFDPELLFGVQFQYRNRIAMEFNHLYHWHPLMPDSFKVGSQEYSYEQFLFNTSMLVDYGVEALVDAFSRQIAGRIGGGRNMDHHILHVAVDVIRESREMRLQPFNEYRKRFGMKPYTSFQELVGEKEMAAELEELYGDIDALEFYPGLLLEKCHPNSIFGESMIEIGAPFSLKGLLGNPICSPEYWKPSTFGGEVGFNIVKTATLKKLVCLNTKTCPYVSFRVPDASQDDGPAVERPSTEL
row,SMILES,"inhibition at 5 min, 10 µM [%]"
1,O=C(Cc1ccccc1Nc1c(Cl)cccc1Cl)NCCOc1ccc2oc(=O)ccc2c1,5 to 30
2,CC(C)Cc1ccc(C(C)C(=O)NCCOc2ccc3oc(=O)ccc3c2)cc1 (stereo not drawn),5 to 30
3,O=C(Cc1ccccc1Nc1c(Cl)cccc1Cl)NCCOc1ccc2ccc(=O)oc2c1,> 15
4,O=C(O)Cc1ccccc1Nc1c(Cl)cccc1Cl [DICLOFENAC],15
5,CC(C)Cc1ccc(C(C)C(=O)O)cc1 (stereo not drawn) [IBUPROFEN],> 60

# Tested on: Rattus norvegicus
# Assay: Antihyperalgesic activity in Sprague-Dawley rat model of Complete freund's adjuvant-induced arthritis assessed as increase in pain threshold of ipsilateral paw at 100 mg/kg, po starting from day 14 after CFA injection and measured at 15 mins by paw pressure test
# Assay type: functional, organism-based
row,SMILES,Activity
1,CC(C)Cc1ccc(C(C)C(=O)O)cc1 (stereo not drawn) [IBUPROFEN],Active

# Biological target: T1, Prostaglandin G/H synthase 2 (Mus musculus) (UniProt Q05769)
# T1 sequence (whole entry): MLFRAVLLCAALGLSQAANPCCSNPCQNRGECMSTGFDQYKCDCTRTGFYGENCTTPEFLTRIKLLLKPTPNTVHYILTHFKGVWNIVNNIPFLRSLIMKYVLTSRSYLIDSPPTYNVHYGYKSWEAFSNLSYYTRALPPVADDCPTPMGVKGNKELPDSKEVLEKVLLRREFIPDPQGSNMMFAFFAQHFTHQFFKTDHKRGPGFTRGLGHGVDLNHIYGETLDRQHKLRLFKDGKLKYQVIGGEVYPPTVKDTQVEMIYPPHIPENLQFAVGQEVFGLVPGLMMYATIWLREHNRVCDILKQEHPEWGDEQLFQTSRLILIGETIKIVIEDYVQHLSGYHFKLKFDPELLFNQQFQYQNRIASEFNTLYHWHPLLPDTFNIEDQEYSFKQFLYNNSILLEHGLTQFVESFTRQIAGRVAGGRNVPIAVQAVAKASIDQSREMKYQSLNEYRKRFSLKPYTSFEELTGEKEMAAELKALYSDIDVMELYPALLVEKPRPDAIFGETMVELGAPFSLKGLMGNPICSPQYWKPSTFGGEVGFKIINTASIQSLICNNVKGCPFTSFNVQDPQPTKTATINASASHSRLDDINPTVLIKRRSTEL
# Assay: Inhibition of COX2 in mouse RAW264.7 cells assessed as reduction in LPS-induced inflammation by measuring reduction in PGE2 level at 100 uM treated 1 hr after LPS stimulation and measured after 18 hrs by ELISA relative to control
# Assay type: cell-based
row,SMILES,inhibition [%]
1,O=C(Cc1ccccc1Nc1c(Cl)cccc1Cl)NCCOc1ccc2oc(=O)ccc2c1,75

# Tested on: not listed separately
# Assay: Half life in Sprague-Dawley rat plasma by LC-MS/MS analysis
# Assay type: ADME, cell-free
row,SMILES,half-life [h]
1,CC(C(=O)NCCOc1ccc2ccc(=O)oc2c1)c1ccc(-c2ccccc2)c(F)c1 (stereo not drawn),> 4
2,COc1ccc2cc([C@H](C)C(=O)NCCOc3ccc4ccc(=O)oc4c3)ccc2c1,> 4
3,O=C(Cc1ccccc1Nc1c(Cl)cccc1Cl)NCCOc1ccc2oc(=O)ccc2c1,> 4
4,CC1=C(CC(=O)NCCOc2ccc3ccc(=O)oc3c2)c2cc(F)ccc2/C1=C\c1ccc([S+](C)[O-])cc1 (stereo not drawn),> 4
5,COc1ccc2c(c1)c(CC(=O)NCCOc1ccc3oc(=O)ccc3c1)c(C)n2C(=O)c1ccc(Cl)cc1,> 4
6,CC(C(=O)NCCOc1ccc2ccc(=O)oc2c1)c1cccc(C(=O)c2ccccc2)c1 (stereo not drawn),> 4
7,CC(C(=O)NCCOc1ccc2oc(=O)ccc2c1)c1cccc(C(=O)c2ccccc2)c1 (stereo not drawn),> 4
8,COc1ccc2c(c1)c(CC(=O)NCCOc1ccc3ccc(=O)oc3c1)c(C)n2C(=O)c1ccc(Cl)cc1,> 4
9,COc1ccc2cc([C@H](C)C(=O)NCCOc3ccc4oc(=O)ccc4c3)ccc2c1,> 4
10,CC(C(=O)NCCOc1ccc2oc(=O)ccc2c1)c1ccc(-c2ccccc2)c(F)c1 (stereo not drawn),> 4
11,CC1=C(CC(=O)NCCOc2ccc3oc(=O)ccc3c2)c2cc(F)ccc2/C1=C\c1ccc([S+](C)[O-])cc1 (stereo not drawn),> 4
12,CC(C)Cc1ccc(C(C)C(=O)NCCOc2ccc3oc(=O)ccc3c2)cc1 (stereo not drawn),> 4
13,O=C(Cc1ccccc1Nc1c(Cl)cccc1Cl)NCCOc1ccc2ccc(=O)oc2c1,> 4

# Tested on: not listed separately
# Assay: Half life in human plasma by LC-MS/MS analysis
# Assay type: ADME, cell-free
row,SMILES,half-life [h]
1,CC(C(=O)NCCOc1ccc2ccc(=O)oc2c1)c1ccc(-c2ccccc2)c(F)c1 (stereo not drawn),> 4
2,COc1ccc2cc([C@H](C)C(=O)NCCOc3ccc4ccc(=O)oc4c3)ccc2c1,> 4
3,O=C(Cc1ccccc1Nc1c(Cl)cccc1Cl)NCCOc1ccc2oc(=O)ccc2c1,> 4
4,CC1=C(CC(=O)NCCOc2ccc3ccc(=O)oc3c2)c2cc(F)ccc2/C1=C\c1ccc([S+](C)[O-])cc1 (stereo not drawn),> 4
5,COc1ccc2c(c1)c(CC(=O)NCCOc1ccc3oc(=O)ccc3c1)c(C)n2C(=O)c1ccc(Cl)cc1,> 4
6,CC(C(=O)NCCOc1ccc2ccc(=O)oc2c1)c1cccc(C(=O)c2ccccc2)c1 (stereo not drawn),> 4
7,CC(C(=O)NCCOc1ccc2oc(=O)ccc2c1)c1cccc(C(=O)c2ccccc2)c1 (stereo not drawn),> 4
8,COc1ccc2c(c1)c(CC(=O)NCCOc1ccc3ccc(=O)oc3c1)c(C)n2C(=O)c1ccc(Cl)cc1,> 4
9,COc1ccc2cc([C@H](C)C(=O)NCCOc3ccc4oc(=O)ccc4c3)ccc2c1,> 4
10,CC(C(=O)NCCOc1ccc2oc(=O)ccc2c1)c1ccc(-c2ccccc2)c(F)c1 (stereo not drawn),> 4
11,CC1=C(CC(=O)NCCOc2ccc3oc(=O)ccc3c2)c2cc(F)ccc2/C1=C\c1ccc([S+](C)[O-])cc1 (stereo not drawn),> 4
12,CC(C)Cc1ccc(C(C)C(=O)NCCOc2ccc3oc(=O)ccc3c2)cc1 (stereo not drawn),> 4
13,O=C(Cc1ccccc1Nc1c(Cl)cccc1Cl)NCCOc1ccc2ccc(=O)oc2c1,> 4

# — ChEMBL document CHEMBL4402543, “Bioisosteric Development of Multitarget Nonsteroidal Anti-Inflammatory Drug-Carbonic Anhydrases Inhibitor Hybrids for the Management of Rheumatoid Arthritis” (J Med Chem, 2020)
